Our source for the residual activity values is the kinase profiling compilation of Christmann-Franck et al. (2016).

Chain of CDK1 CCNB1 (human) (P06493 whole entry, looked up): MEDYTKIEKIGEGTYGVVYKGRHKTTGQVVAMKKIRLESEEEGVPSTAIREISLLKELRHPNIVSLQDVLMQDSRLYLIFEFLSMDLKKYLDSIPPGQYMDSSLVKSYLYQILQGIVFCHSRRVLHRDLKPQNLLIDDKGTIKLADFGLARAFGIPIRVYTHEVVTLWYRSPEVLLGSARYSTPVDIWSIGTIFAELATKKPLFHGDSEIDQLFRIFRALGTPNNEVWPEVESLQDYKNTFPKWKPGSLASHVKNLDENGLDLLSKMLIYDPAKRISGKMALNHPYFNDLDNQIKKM
Chain of CDK1 CCNB1 (human) (P14635 whole entry, looked up): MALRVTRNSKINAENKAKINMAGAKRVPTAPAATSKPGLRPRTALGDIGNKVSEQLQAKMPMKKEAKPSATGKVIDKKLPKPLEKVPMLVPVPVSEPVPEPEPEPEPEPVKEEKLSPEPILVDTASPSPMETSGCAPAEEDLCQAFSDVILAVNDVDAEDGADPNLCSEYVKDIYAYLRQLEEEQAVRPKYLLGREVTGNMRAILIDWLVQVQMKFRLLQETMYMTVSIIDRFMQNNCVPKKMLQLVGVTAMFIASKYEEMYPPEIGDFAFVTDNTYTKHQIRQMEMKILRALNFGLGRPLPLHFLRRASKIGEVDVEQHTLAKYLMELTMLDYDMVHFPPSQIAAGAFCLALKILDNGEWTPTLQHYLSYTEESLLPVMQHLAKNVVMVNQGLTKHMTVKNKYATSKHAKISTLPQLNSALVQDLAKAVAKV
Chain of CSNK1G3 (human) (Q9Y6M4 whole entry, looked up): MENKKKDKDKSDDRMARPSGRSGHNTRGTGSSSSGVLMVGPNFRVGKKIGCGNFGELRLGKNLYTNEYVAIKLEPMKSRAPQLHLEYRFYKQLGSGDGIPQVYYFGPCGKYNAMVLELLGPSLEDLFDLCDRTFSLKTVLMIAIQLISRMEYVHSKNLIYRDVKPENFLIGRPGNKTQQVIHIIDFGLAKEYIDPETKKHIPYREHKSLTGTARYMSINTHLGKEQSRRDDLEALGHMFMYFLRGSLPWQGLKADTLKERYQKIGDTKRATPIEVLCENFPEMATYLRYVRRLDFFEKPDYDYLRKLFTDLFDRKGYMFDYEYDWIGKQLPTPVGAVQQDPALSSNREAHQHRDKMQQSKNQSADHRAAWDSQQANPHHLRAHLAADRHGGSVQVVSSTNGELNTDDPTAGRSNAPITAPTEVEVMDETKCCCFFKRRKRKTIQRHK
Chain of DMPK (human) (Q09013 whole entry, looked up): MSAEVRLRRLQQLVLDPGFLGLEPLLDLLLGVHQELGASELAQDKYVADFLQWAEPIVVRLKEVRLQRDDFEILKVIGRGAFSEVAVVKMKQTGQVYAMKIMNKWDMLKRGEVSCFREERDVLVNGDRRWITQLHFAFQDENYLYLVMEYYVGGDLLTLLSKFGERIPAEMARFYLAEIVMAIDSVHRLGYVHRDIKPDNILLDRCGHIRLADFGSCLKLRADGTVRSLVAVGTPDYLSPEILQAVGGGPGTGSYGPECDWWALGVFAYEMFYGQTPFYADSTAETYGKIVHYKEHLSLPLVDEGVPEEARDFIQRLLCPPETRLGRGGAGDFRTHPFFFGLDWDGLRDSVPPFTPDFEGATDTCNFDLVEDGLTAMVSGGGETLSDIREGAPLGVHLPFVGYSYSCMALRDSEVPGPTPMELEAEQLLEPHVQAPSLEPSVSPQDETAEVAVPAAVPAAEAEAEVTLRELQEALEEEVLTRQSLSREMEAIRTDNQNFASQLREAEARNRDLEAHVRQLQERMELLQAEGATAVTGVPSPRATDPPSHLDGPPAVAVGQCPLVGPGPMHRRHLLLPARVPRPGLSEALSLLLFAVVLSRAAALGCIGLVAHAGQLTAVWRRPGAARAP

One assay has as its target ABL1 (human) (UniProt P00519). Nature of the assay: radiometric filter-binding kinase assay, Kinase HotSpot. The settings on record: compound 0.5 µM; ATP 10 µM.
With `CC#CC(=O)Nc1cc2c(Nc3ccc(F)c(Cl)c3)ncnc2cn1`, the residual activity was 97.8%.
Same read-out and setting: the same measure for `Nc1ncnc2c1c(-c1ccc(Oc3ccccc3)cc1)cn2C1CCCC1`: 67.4%; for `CC(=O)c1ccc(N2CCOCC2)cc1O`: 98.9%.

The target of a further assay is AURKC (human) (UniProt Q9UQB9). The assay is described as above. Particulars: compound 0.5 µM; ATP 10 µM.
Chain of AURKC (human) (Q9UQB9 whole entry, looked up): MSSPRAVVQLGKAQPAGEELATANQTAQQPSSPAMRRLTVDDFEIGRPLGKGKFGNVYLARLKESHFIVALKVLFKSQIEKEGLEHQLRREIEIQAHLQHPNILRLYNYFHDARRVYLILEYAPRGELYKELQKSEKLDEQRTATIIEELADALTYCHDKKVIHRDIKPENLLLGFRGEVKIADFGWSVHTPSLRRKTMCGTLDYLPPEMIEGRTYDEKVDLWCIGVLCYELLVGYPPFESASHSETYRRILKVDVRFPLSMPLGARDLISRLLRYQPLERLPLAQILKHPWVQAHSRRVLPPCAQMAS
For the compound `CC#CC(=O)Nc1cc2c(Nc3ccc(F)c(Cl)c3)ncnc2cn1`, the residual activity was found to be 95.9%.
Regarding `Nc1ncnc2c1c(-c1ccc(Oc3ccccc3)cc1)cn2C1CCCC1`, the residual activity is 95%.
Same read-out and setting: for `CC(=O)c1ccc(N2CCOCC2)cc1O` the value was 104%.

For a further assay, the target named is BLK (human) (UniProt P51451). Described as above. Particulars: compound 0.5 µM; ATP 10 µM.
Chain of BLK (human) (P51451 whole entry, looked up): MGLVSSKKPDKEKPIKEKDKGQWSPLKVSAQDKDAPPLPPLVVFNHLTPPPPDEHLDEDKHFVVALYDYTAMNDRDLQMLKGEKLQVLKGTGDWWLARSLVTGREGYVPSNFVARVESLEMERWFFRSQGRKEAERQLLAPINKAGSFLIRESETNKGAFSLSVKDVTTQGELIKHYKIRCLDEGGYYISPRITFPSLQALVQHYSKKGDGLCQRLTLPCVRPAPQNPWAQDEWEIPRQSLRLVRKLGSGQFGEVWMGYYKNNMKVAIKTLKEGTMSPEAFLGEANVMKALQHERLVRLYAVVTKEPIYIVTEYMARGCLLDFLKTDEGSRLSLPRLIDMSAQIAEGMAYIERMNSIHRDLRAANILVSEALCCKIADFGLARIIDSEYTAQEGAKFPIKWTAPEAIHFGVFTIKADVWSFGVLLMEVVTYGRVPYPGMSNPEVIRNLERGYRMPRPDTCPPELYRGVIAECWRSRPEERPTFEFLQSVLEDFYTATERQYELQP
As to `CC#CC(=O)Nc1cc2c(Nc3ccc(F)c(Cl)c3)ncnc2cn1`, the residual activity was 21.3%.
For `Nc1ncnc2c1c(-c1ccc(Oc3ccccc3)cc1)cn2C1CCCC1`, the residual activity worked out at 1.52%.
On the same count and under the same terms, for `CC(=O)c1ccc(N2CCOCC2)cc1O` the value was 102%.

The next assay concerns the target BMX (human) (UniProt P51813). The assay is described as above. Particulars: compound 0.5 µM; ATP 10 µM.
In the case of `CC#CC(=O)Nc1cc2c(Nc3ccc(F)c(Cl)c3)ncnc2cn1`, the residual activity was found to be 2.54%.
Still for that read-out and setting: the same measure for `Nc1ncnc2c1c(-c1ccc(Oc3ccccc3)cc1)cn2C1CCCC1`: 10.1%.
Same read-out and setting: for `CC(=O)c1ccc(N2CCOCC2)cc1O` the value was 90.6%.

In another assay the target is BTK (human) (UniProt Q06187). The assay is described as above. Particulars: compound 0.5 µM; ATP 10 µM.
Chain of BTK (human) (Q06187 whole entry, looked up): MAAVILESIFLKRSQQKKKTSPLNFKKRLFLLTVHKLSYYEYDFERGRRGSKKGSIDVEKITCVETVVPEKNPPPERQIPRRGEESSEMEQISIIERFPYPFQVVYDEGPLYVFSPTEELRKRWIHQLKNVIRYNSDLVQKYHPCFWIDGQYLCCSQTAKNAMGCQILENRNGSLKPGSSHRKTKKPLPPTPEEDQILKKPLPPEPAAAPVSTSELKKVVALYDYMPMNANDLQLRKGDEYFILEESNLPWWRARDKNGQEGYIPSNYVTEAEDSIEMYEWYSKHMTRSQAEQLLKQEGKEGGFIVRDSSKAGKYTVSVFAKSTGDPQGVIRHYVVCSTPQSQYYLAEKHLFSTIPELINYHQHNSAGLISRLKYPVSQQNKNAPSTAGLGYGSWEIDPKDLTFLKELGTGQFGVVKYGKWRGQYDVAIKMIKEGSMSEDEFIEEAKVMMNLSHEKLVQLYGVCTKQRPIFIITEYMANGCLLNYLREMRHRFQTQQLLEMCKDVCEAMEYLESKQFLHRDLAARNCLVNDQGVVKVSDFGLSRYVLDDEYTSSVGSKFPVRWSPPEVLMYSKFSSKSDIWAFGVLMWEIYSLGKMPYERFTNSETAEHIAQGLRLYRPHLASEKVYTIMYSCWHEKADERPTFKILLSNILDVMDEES
For the compound `CC#CC(=O)Nc1cc2c(Nc3ccc(F)c(Cl)c3)ncnc2cn1`, the residual activity turned out to be 2.88%.
The same measure, in the same setting: for `Nc1ncnc2c1c(-c1ccc(Oc3ccccc3)cc1)cn2C1CCCC1` the value was 4.56%; for `CC(=O)c1ccc(N2CCOCC2)cc1O`, 108%.

Another assay addresses CDK1 CCNB1 (human) (UniProt P06493+P14635). Described as above. Particulars: compound 0.5 µM; ATP 10 µM.
As to `CC#CC(=O)Nc1cc2c(Nc3ccc(F)c(Cl)c3)ncnc2cn1`, the residual activity stood at 99.5%.
For `Nc1ncnc2c1c(-c1ccc(Oc3ccccc3)cc1)cn2C1CCCC1`, the residual activity came to 110%.
Same read-out and setting: for `CC(=O)c1ccc(N2CCOCC2)cc1O` the value was 86.8%.

The target in another assay is CDK3 CCNE1 (human) (UniProt Q00526+P24864). The description is as above. The settings on record: compound 0.5 µM; ATP 10 µM.
Take `CC#CC(=O)Nc1cc2c(Nc3ccc(F)c(Cl)c3)ncnc2cn1`: the residual activity worked out at 96.8%.
The same measure, in the same setting: the same measure for `Nc1ncnc2c1c(-c1ccc(Oc3ccccc3)cc1)cn2C1CCCC1`: 92.6%; for `CC(=O)c1ccc(N2CCOCC2)cc1O`: 102%.

For another assay, the target named is CDK7 CCNH MNAT1 (human) (UniProt P50613+P51948+P51946). Described as above. Particulars: compound 0.5 µM; ATP 10 µM.
For the compound `CC#CC(=O)Nc1cc2c(Nc3ccc(F)c(Cl)c3)ncnc2cn1`, the residual activity was 101%.
In the case of `Nc1ncnc2c1c(-c1ccc(Oc3ccccc3)cc1)cn2C1CCCC1`, the residual activity is 96.8%.
For the compound `CC(=O)c1ccc(N2CCOCC2)cc1O`, the residual activity was 105%.

The next assay addresses CSNK1G2 (human) (UniProt P78368). Described as above. The settings on record: compound 0.5 µM; ATP 10 µM.
Take `CC#CC(=O)Nc1cc2c(Nc3ccc(F)c(Cl)c3)ncnc2cn1`: the residual activity amounted to 94.9%.
As for `Nc1ncnc2c1c(-c1ccc(Oc3ccccc3)cc1)cn2C1CCCC1`, the residual activity turned out to be 93.7%.
As to `CC(=O)c1ccc(N2CCOCC2)cc1O`, the residual activity came out at 102%.

Another assay has as its target CSNK1G3 (human) (UniProt Q9Y6M4). The assay is described as above. Particulars: compound 0.5 µM; ATP 10 µM.
As to `CC#CC(=O)Nc1cc2c(Nc3ccc(F)c(Cl)c3)ncnc2cn1`, the residual activity worked out at 111%.
On the same count and under the same terms, for `Nc1ncnc2c1c(-c1ccc(Oc3ccccc3)cc1)cn2C1CCCC1` the value was 99.5%; for `CC(=O)c1ccc(N2CCOCC2)cc1O`, 101%.

Another assay addresses DMPK (human) (UniProt Q09013). The assay is described as above. Particulars: compound 0.5 µM; ATP 10 µM.
Turning to `CC#CC(=O)Nc1cc2c(Nc3ccc(F)c(Cl)c3)ncnc2cn1`, the residual activity was 104%.
Same read-out and setting: for `Nc1ncnc2c1c(-c1ccc(Oc3ccccc3)cc1)cn2C1CCCC1` the value was 136%; for `CC(=O)c1ccc(N2CCOCC2)cc1O`, 105%.

The next assay concerns the target DYRK1A (human) (UniProt Q13627). The assay is described as above. The settings on record: compound 0.5 µM; ATP 10 µM.
Consider `CC#CC(=O)Nc1cc2c(Nc3ccc(F)c(Cl)c3)ncnc2cn1`, for which the residual activity is 96.4%.
As to `Nc1ncnc2c1c(-c1ccc(Oc3ccccc3)cc1)cn2C1CCCC1`, the residual activity worked out at 99.1%.
Take `CC(=O)c1ccc(N2CCOCC2)cc1O`: the residual activity came out at 98%.

For a further assay, the target named is DYRK4 (human) (UniProt Q9NR20). Described as above. Particulars: compound 0.5 µM; ATP 10 µM.
Chain of DYRK4 (human) (Q9NR20 whole entry, looked up): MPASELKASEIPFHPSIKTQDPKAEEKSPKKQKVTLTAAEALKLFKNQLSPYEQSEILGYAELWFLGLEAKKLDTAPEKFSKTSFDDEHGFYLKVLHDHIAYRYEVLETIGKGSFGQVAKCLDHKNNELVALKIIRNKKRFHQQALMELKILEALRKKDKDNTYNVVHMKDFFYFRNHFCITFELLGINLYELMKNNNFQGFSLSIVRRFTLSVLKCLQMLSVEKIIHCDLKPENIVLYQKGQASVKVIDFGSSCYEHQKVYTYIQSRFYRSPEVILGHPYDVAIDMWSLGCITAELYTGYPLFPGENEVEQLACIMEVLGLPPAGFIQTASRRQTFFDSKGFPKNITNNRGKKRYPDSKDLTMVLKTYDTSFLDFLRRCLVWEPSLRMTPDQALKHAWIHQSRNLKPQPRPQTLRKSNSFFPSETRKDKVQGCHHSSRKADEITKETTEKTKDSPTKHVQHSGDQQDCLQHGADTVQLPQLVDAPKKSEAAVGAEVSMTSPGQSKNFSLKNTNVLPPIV
For the compound `CC#CC(=O)Nc1cc2c(Nc3ccc(F)c(Cl)c3)ncnc2cn1`, the residual activity worked out at 98%.
On the same count and under the same terms, the same measure for `Nc1ncnc2c1c(-c1ccc(Oc3ccccc3)cc1)cn2C1CCCC1`: 91.6%.
Regarding `CC(=O)c1ccc(N2CCOCC2)cc1O`, the residual activity turned out to be 95.6%.

The next assay deals with EPHA1 (human) (UniProt P21709). The description is as above. Particulars: compound 0.5 µM; ATP 10 µM.
As for `CC#CC(=O)Nc1cc2c(Nc3ccc(F)c(Cl)c3)ncnc2cn1`, the residual activity turned out to be 88.3%.
With `Nc1ncnc2c1c(-c1ccc(Oc3ccccc3)cc1)cn2C1CCCC1`, the residual activity was found to be 101%.
The same measure, in the same setting: the same measure for `CC(=O)c1ccc(N2CCOCC2)cc1O`: 94%.

The target in another assay is FES (human) (UniProt P07332). The description is as above. Particulars: compound 0.5 µM; ATP 10 µM.
Chain of FES (human) (P07332 whole entry, looked up): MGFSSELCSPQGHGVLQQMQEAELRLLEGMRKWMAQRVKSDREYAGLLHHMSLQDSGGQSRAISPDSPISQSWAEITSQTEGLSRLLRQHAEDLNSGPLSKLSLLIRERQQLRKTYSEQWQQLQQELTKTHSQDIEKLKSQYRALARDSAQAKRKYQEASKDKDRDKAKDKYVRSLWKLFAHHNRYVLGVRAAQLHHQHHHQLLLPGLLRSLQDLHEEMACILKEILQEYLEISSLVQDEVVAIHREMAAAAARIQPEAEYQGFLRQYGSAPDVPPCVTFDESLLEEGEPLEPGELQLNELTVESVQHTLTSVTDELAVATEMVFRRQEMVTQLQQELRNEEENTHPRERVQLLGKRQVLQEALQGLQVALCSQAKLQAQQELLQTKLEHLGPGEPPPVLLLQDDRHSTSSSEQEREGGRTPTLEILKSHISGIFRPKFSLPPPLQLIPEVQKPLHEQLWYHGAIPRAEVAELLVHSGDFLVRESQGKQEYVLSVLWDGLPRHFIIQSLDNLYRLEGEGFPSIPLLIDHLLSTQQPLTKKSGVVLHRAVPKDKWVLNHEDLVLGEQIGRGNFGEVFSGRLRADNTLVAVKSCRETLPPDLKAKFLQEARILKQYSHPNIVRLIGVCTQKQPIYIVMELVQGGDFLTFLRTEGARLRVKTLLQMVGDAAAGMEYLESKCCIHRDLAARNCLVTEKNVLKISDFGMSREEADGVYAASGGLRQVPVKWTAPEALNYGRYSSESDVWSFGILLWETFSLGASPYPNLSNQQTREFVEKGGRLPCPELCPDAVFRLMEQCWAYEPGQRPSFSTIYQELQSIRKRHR
For the compound `CC#CC(=O)Nc1cc2c(Nc3ccc(F)c(Cl)c3)ncnc2cn1`, the residual activity is 99.4%.
In the case of `Nc1ncnc2c1c(-c1ccc(Oc3ccccc3)cc1)cn2C1CCCC1`, the residual activity amounted to 94.9%.
Same read-out and setting: the same measure for `CC(=O)c1ccc(N2CCOCC2)cc1O`: 100%.

The target of another assay is FLT1 (human) (UniProt P17948). The assay is described as above. Particulars: compound 0.5 µM; ATP 10 µM.
As for `CC#CC(=O)Nc1cc2c(Nc3ccc(F)c(Cl)c3)ncnc2cn1`, the residual activity amounted to 100%.
Take `Nc1ncnc2c1c(-c1ccc(Oc3ccccc3)cc1)cn2C1CCCC1`: the residual activity worked out at 76.9%.
On to `CC(=O)c1ccc(N2CCOCC2)cc1O`, for which the residual activity was 97.1%.

The target in a further assay is GRK5 (human) (UniProt P34947). Described as above. Particulars: compound 0.5 µM; ATP 10 µM.
In the case of `CC#CC(=O)Nc1cc2c(Nc3ccc(F)c(Cl)c3)ncnc2cn1`, the residual activity was found to be 105%.
In the case of `Nc1ncnc2c1c(-c1ccc(Oc3ccccc3)cc1)cn2C1CCCC1`, the residual activity worked out at 102%.
For the compound `CC(=O)c1ccc(N2CCOCC2)cc1O`, the residual activity came to 108%.

The target of another assay is GRK6 (human) (UniProt P43250). The assay is described as above. The settings on record: compound 0.5 µM; ATP 10 µM.
On to `CC#CC(=O)Nc1cc2c(Nc3ccc(F)c(Cl)c3)ncnc2cn1`, for which the residual activity came to 104%.
Consider `Nc1ncnc2c1c(-c1ccc(Oc3ccccc3)cc1)cn2C1CCCC1`, for which the residual activity was found to be 92.6%.
Same read-out and setting: the same measure for `CC(=O)c1ccc(N2CCOCC2)cc1O`: 100%.

The next assay addresses IGF1R (human) (UniProt P08069). Described as above. The settings on record: compound 0.5 µM; ATP 10 µM.
With `CC#CC(=O)Nc1cc2c(Nc3ccc(F)c(Cl)c3)ncnc2cn1`, the residual activity was found to be 100%.
`Nc1ncnc2c1c(-c1ccc(Oc3ccccc3)cc1)cn2C1CCCC1`: the residual activity was found to be 104%.
For `CC(=O)c1ccc(N2CCOCC2)cc1O`, the residual activity turned out to be 106%.

In a further assay the target is INSRR (human) (UniProt P14616). Described as above. The settings on record: compound 0.5 µM; ATP 10 µM.
With `CC#CC(=O)Nc1cc2c(Nc3ccc(F)c(Cl)c3)ncnc2cn1`, the residual activity was 101%.
The same measure, in the same setting: the same measure for `Nc1ncnc2c1c(-c1ccc(Oc3ccccc3)cc1)cn2C1CCCC1`: 81.9%; for `CC(=O)c1ccc(N2CCOCC2)cc1O`: 96.7%.

A further assay has as its target KDR (human) (UniProt P35968). The description is as above. Particulars: compound 0.5 µM; ATP 10 µM.
For `CC#CC(=O)Nc1cc2c(Nc3ccc(F)c(Cl)c3)ncnc2cn1`, the residual activity worked out at 98.2%.
In the case of `Nc1ncnc2c1c(-c1ccc(Oc3ccccc3)cc1)cn2C1CCCC1`, the residual activity was found to be 75%.
Consider `CC(=O)c1ccc(N2CCOCC2)cc1O`, for which the residual activity was determined as 97.7%.

For orientation: residual activity means the signal under treatment as a percentage of the control signal.
